What was measured:
[1] = tested on: mSOD1^(G93A) transgenic mice; conditions: mouse, in vivo
[2] = tested on: mSOD1^(G93A) transgenic mice
Source text: Transgenic mSOD1^(G93A) mice of both sexes were used in this study.

How did the “motoneurons surviving in the sciatic motor pool (mean +/- S.E.M.)” value [1] turn out when `O=C(O)CC(O)(CC(=O)O)C(=O)O.[O-][n+]1cccc(C(Cl)=NOC[C@H](O)CN2CCCCC2)c1` [compound A, (+)-R-N-[2-hydroxy-3-(1-piperidinyl)-propoxy]-pyridine-1-oxide-3-carboximidoyl chloride citrate] was run?
The value was 412+/−28.

What about the “half relaxation time of EDL (mean +/- S.E.M.)” value ([2]; 10 mg/kg i.p. daily from 35 days of age, 120 days of age, n=10, p=0.030 vs untreated (43.3 ms), wild-type 25.8 ms) of the same compound?
The value was 32.2 ms.

And the “motor units survived in EDL muscles (mean +/- S.E.M.)” value ([2]; 10 mg/kg i.p. daily from 35 days of age, assessed at 120 days of age, n=10, p=0.003 vs untreated (8.3), wild-type 28)?
Its value is 14.3 +/−0.6.

What about the “fatigue index (FI) of EDL (mean +/- S.E.M.)” value ([2]; 10 mg/kg i.p. daily, 120 days of age, stimulation 40 Hz, 3 minutes, n=10, p<0.05 vs untreated (0.255), wild-type 0.848) of the same compound?
Its value is 0.416+/−0.07.

What about the “average lifespan (mean +/- S.E.M.)” value ([2]; treated mSOD1^(G93A) mice, n=7, untreated 125 days, endpoint: inability to right itself and loss of approximately 20% body weight) of the same compound?
The value was 153 ± 2.6 days.

What about the “decline in body weight” value ([2]; treated vs untreated mSOD1^(G93A) mice) of the same compound?
Its value is “delayed”.

And the increase in lifespan ([2]; treated vs untreated mSOD1^(G93A) mice, p<0.001)?
Its increase in lifespan is “over 22%”.

Source: patent publication US20150126551A1, “USE OF A […] HALIDE DERIVATIVE IN THE TREATMENT OF NEURODEGENERATIVE DISEASES” (Orphazyme ApS, priority 2003, published 2015)
